Measured values from patent US20260131007A1, “Mannose 6-Phosphate Receptor Binding Compounds for the Degradation of Extracellular Proteins” (Avilar Therapeutics, Inc., priority 2023, published 2026).

Biological target: T1, Insulin-like growth factor 2 receptor (IGF-1IR, cation-independent mannose-6-phosphate receptor, CI-MPR; hIGF-IIR) (Homo sapiens, UniProt P11717)
T1 construct: purchased R&D Systems 6418-GR
Test: HTRF-based ternary complex inhibition assay for relative affinity of IGF-IIR ligands
Settings: competition with MTAC probe for His-tagged hIGF-IIR; biotinylated IgG1; apparent binding affinity; read-out: TCF INH (HTRF) IC50
Description: The apparent binding affinity of Insulin-like growth factor 2 receptor (IGF-1IR, also called the cation- independent mannose-6-phosphate receptor (CI-MPR)) ligands was determined indirectly by competing with a probe molecule for binding to IGF-1IR. The probe is a Mannose 6-Phosphate Ligand (“Ligand”) and binds to hIGF-IIR and IgG1 to form a hIGF-IIR: Ligand: IgG1 ternary complex. The ternary complex was detected by an HTRF readout. The ternary complex is disrupted in the presence of IGF-1IR ligand, resulting in decreased HTRF signal. IGF-1IR ligands of 3-fold dilution series were prepared from 10 mM DMSO stock on a 384-well LDV microplate using Echo Acoustic Liquid Handler (Beckman Coulter Life Sciences) followed by transfer of 600 nL of the solutions to an OptiPlate 384-well microplate (PerkinElmer, 6007290). Manose-6-phosphate (M6P; J&K, 530168) and glucose-6-phosphate (G6P; Sigma, V900924) were prepared from 100 mM stock in the same manner and were used as positive and negative controls, respectively. The wells used as 0% and 100% inhibition controls were prepared by adding 600 nL DMSO. 20 nL of 50 μM MTAC probe was transferred to all wells except the wells used as 100% Inhibition control. 9.4 μL working solution containing 65.1 nM of Biotinylated-IgG1 (Viva 20211108) and 65.1 nM of His-tagged hIGF-IIR (R&D Systems, 6418-GR) in assay buffer 50 mM Tris, pH 7.5, 150 mM NaCl, 50 mM CaCl2, 0.01% Tween-20 was transferred to all wells. The plate was incubated at room temperature for 60 min with gentle shaking to allow molecular interaction to reach equilibration. Following this, 10 μL of HTRF detection solution containing 15 nM Streptavidin-d2 (PerkinElmer, 610SADLA) and 0.7 nM MAb Anti 6HIS—Tb cryptate (PerkinElmer, 61HISTLA) in PPI Terbium detection buffer (PerkinElmer, 61DB10RDF) was added. The assay plate was incubated at room temperature with gentle shaking for 60 min to allow HTRF signal to develop. The plate was gently spun on a centrifuge then placed on a EnVision plate reader (Perkin Elmer, EnVision 2104) to read fluorescence ratio of 665 nm/615 nm. Percent inhibitions were calculated with this equation: % I=100* [1−(X−100% I/(0% I−100% I)] where X is the […] in the presence of IGF-1IR ligand. The apparent binding affinity (presented as IC50) was calculated by fitting the % inhibition data with a non-linear 4-parameter inhibition equation using GraphPad Prism (GraphPad Software, LLC; version 9.4.1).

| Compound | IC50 [µM] |
| --- | --- |
| CS(=N)(=O)CC[C@H]1O[C@H](O)[C@@H](O)[C@@H](O)[C@@H]1O (stereo partly drawn) [Compound A1, imino(methyl) (2-((2R,3S,4S,5S,6S)-3,4,5,6-tetrahydroxytetrahydro-2H-pyran-2-yl)ethyl)-16-sulfanone] | < 10 |
| NC[C@H]1O[C@H](Oc2ccccc2)[C@@H](O)[C@@H](O)[C@@H]1O [Compound A2, (2R,3S,4S,5S,6R)-2-(aminomethyl)-6-phenoxytetrahydro-2H-pyran-3,4,5-triol] | 10 to 100 |
| N#CNC(=O)CC[C@H]1O[C@H](Oc2ccccc2)[C@@H](O)[C@@H](O)[C@@H]1O [Compound A3, N-cyano-3-((2R,3S,4S,5S,6R)-3,4,5-trihydroxy-6-phenoxytetrahydro-2H-pyran-2-yl)propanamide] | 10 to 100 |
| CC(=O)NS(=O)(=O)OC[C@H]1O[C@H](Oc2ccccc2)[C@@H](O)[C@@H](O)[C@@H]1O [Compound A4, ((2R,3S,4S,5S,6R)-3,4,5-trihydroxy-6-phenoxytetrahydro-2H-pyran-2-yl)methyl acetylsulfamate] | 100 to 300 |
| COC(=O)c1ccc(O[C@H]2O[C@H](CNc3c(O)c(=O)c3=O)[C@@H](O)[C@H](O)[C@@H]2O)cc1 [Compound A7, methyl 4-(((3S,4S,5S,6R)-3,4,5-trihydroxy-6-(((2-hydroxy-3,4-dioxocyclobut-1-en-1-yl)amino)methyl)tetrahydro-2H-pyran-2-yl)oxy)benzoate] | 100 to 300 |
| CO[C@@H]1O[C@H](CCS(=O)(=O)Nc2ncccn2)[C@@H](O)[C@H](O)[C@@H]1O [Compound A8, N-(pyrimidin-2-yl)-2-((2R,3S,4S,5S,6R)-3,4,5-trihydroxy-6-methoxytetrahydro-2H-pyran-2-yl)ethane-1-sulfonamide] | 10 to 100 |
| CO[C@H]1O[C@H](CCS(=O)(=O)Nc2ncccn2)[C@@H](O)[C@H](O)[C@@H]1O [Compound A9, N-(pyrimidin-2-yl)-2-((2R,3S,4S,5S,6S)-3,4,5-trihydroxy-6-methoxytetrahydro-2H-pyran-2-yl)ethane-1-sulfonamide] | 100 to 300 |
| O=C(NS(=O)(=O)CC[C@H]1O[C@H](O)[C@@H](O)[C@@H](O)[C@@H]1O)c1ccno1 [Compound A11, N-((2-((2R,3S,4S,5S,6S)-3,4,5,6-tetrahydroxytetrahydro-2H-pyran-2-yl)ethyl)sulfonyl)isoxazole-5-carboxamide] | 10 to 100 |
| O=C(NS(=O)(=O)CC[C@H]1O[C@H](O)[C@@H](O)[C@@H](O)[C@@H]1O)c1ccccc1 [Compound A12, N-((2-((2R,3S,4S,5S,6S)-3,4,5,6-tetrahydroxytetrahydro-2H-pyran-2-yl)ethyl)sulfonyl)benzamide] | 100 to 300 |
| O=P(O)(O)CC[C@H]1OC(CCc2ccccc2)[C@@H](O)[C@@H](O)[C@@H]1O (stereo partly drawn) [Compound A13, (2-((2R,3S,4R,5S)-3,4,5-trihydroxy-6-phenethyltetrahydro-2H-pyran-2-yl)ethyl)phosphonic acid] | < 10 |
| C#CCCOC1O[C@H](CCS(=O)(=O)Nc2ncccn2)[C@@H](O)[C@H](O)[C@@H]1O (stereo partly drawn) [Compound A14, 2-((2R,3S,4S,5S)-6-(but-3-yn-1-yloxy)-3,4,5-trihydroxytetrahydro-2H-pyran-2-yl)-N-(pyrimidin-2-yl)ethane-1-sulfonamide] | 100 to 300 |
| O=P(O)(O)CC[C@H]1OC(c2cc3c(cc2O)Cc2ccccc2-3)[C@@H](O)[C@@H](O)[C@@H]1O (stereo partly drawn) [Compound A15, (2-((2R,3S,4S,5S)-3,4,5-trihydroxy-6-(2-hydroxy-9H-fluoren-3-yl)tetrahydro-2H-pyran-2-yl)ethyl)phosphonic acid] | < 10 |
| O=P(O)(O)CC[C@H]1OC(C#Cc2ccccc2)[C@@H](O)[C@@H](O)[C@@H]1O (stereo partly drawn) [Compound A16, (2-((2R,3S,4S,5S)-3,4,5-trihydroxy-6-(phenylethynyl)tetrahydro-2H-pyran-2-yl)ethyl)phosphonic acid] | < 10 |
